Test system: mutated ecdysone receptor-based gene switch
Experiment: In vivo SEAP induction, ligand by IP injection
Parameters: species or system C57BL/6 mouse
Settings: for Secreted Alkaline Phosphatase (percentage of GS ™-E ligand induction) Day 2 / Secreted Alkaline Phosphatase (percentage of GS ™-E ligand induction) Day 3 / Secreted Alkaline Phosphatase (percentage of GS ™-E ligand induction) Day 11: mouse serum; for Secreted Alkaline Phosphatase (percentage of GS ™-E ligand induction) Day 2: IP 2.6 μmol ligand 3 days after electroporation, day 2 after ligand; for Secreted Alkaline Phosphatase (percentage of GS ™-E ligand induction) Day 3 / Secreted Alkaline Phosphatase (percentage of GS ™-E ligand induction) Day 11: IP 2.6 μmol ligand; for Secreted Alkaline Phosphatase (percentage of GS ™-E ligand induction) Day 3: day 3 after ligand; for Secreted Alkaline Phosphatase (percentage of GS ™-E ligand induction) Day 11: day 11 after ligand; for Secreted Alkaline Phosphatase Day 2 / Secreted Alkaline Phosphatase Day 3 / Secreted Alkaline Phosphatase Day 7: IP 26 nmol ligand
Experimental: Applicants' ligands are useful in various applications including gene therapy, expression of proteins of interest in host cells, production of transgenic organisms, and cell-based assays. In vivo induction of a reporter enzyme with various ligands of the present invention was evaluated in a C57BL/6 mouse model system containing a gene switch.
Each element of the gene switch was on a separate plasmid. Receptor expression was under the control of a CMV promoter (SEQ ID NO: 15). Induction was evaluated by the amount of reporter protein expressed in the presence of ligand.
SEAP expression in serum of mice was evaluated after electroporation of the gene switch into mouse quadriceps. Mice were anesthetized with 2 μL/g of a mixture of ketamine (100 mg/mL) and xylazine (20 mg/mL). Animals were then shaved, DNA vectors injected into the muscle in a volume of 2×50 μL polyglutamic acid (12 mg/mL water), electrode conductivity gel applied, and an electrode caliber (1 cm×1 cm; model 384) was placed on hind leg. The muscle was electroporated with 200 V/cm, 8 times, for 20 msec/pulse, at 1 sec time intervals. The transverse electrical field direction was reversed after the animals received half of the pulses. Electroporation was performed with an ECM 830 electroporator from BTX Molecular Delivery Systems.
In some experiments mice received an intraperitoneal injection (IP) of 2.6 μmol of ligand in 50 μL of DMSO 3 days after electroporation of the gene switch. In other experiments the concentration of ligand was decrease to 26 nmol/50 μL of DMSO/mouse. SEAP expression was evaluated 2-11 days after ligand administration. In other experiments ligand was administered in rodent chow. The chow was prepared by dissolving 2 g of ligand in 20 mL of acetone and adding it to 1 kg of LabDiet 5010 autoclavable chow from Purina Mills. This was thoroughly mixed in a Hobart mixer and then mixed for an additional 15 min in a Cross Blend mixer. Animals received chow ad libitum for 1, 2, or 3 days. All values are the average from four animals. Background SEAP in sera from animals treated with vector alone without ligand addition was 0-11 ng/mL serum.
Mouse serum was obtained by centrifugation of blood acquired by retroorbital bleeding with a small glass capillary tube. SEAP quantification was determined using a Clontech Great Escape chemiluminescence kit and by comparison with the Clontech SEAP standard.
Table 9: In vivo evaluation of ligand-mediated induction of a mutated ecdysone receptor-based gene switch. SEAP expression in serum of mice was evaluated after electroporation of the gene expression cassettes into mouse quadriceps. Mice received an IP injection of 2.6 μmol of ligand 3 days after electroporation. SEAP expression was evaluated 2-11 days after ligand administration. Each dose group was composed of four animals. Percentage of GS™-E ligand induction was determined by averaging SEAP expression from four animals divided by the average SEAP expression induced with GS™-E ligand and then multiplying by 100.
Table 10: Induction of gene switch expression with low concentrations of ligand. SEAP expression in serum of mice was evaluated after electroporation of the gene expression cassettes into mouse quadriceps. Mice received an IP injection of 26 nmol of ligand or 130 nmol GS™-E ligand 3 days after electroporation. SEAP expression was evaluated 2-7 days after ligand administration. Values are the average from 4 animals.

Structure (SMILES) | Secreted Alkaline Phosphatase (percentage of GS ™-E ligand induction) Day 2 | Secreted Alkaline Phosphatase (percentage of GS ™-E ligand induction) Day 3 | Secreted Alkaline Phosphatase (percentage of GS ™-E ligand induction) Day 11 | Secreted Alkaline Phosphatase Day 2 | Secreted Alkaline Phosphatase Day 3 | Secreted Alkaline Phosphatase Day 7 [ng/ml mouse sera]
COc1cc(C(=O)N(NC(=O)c2ccc3c(c2C)OCCO3)C(C)(C)C#N)cc(OC)c1C [RG-115092, N-(5-methyl-1,4-benzodioxan-6-carbonyl)-N′-(2-cyano-2-propyl)-N′-(3,5-dimethoxy-4-methylbenzoyl)hydrazine] | 8 percentage of GS ™-E ligand induction | 2 percentage of GS ™-E ligand induction | – | – | – | –
CCc1c(C(=O)NN(C(=O)c2cc(C)cc(Cl)c2)C(C)(C)C)ccc2c1OCCO2 [RG-101494, N-(5-ethyl-1,4-benzodioxan-6-carbonyl)-N′-(tert-butyl)-N′-(3-chloro-5-methylbenzoyl)hydrazine] | 136 percentage of GS ™-E ligand induction | 138 percentage of GS ™-E ligand induction | – | – | – | –
CCCC(N(NC(=O)c1cccc(OC)c1C)C(=O)c1cc(OC)c(C)c(OC)c1)C(C)(C)C (stereo not drawn) [RG-115824] | 102 percentage of GS ™-E ligand induction | 101 percentage of GS ™-E ligand induction | 415 percentage of GS ™-E ligand induction | – | – | –
CCc1c(OC)cccc1C(=O)NN(C(=O)c1cc(C)cc(C=NNC(=O)C(N)=O)c1)C(C)(C)C [RG-115613, oxamic hydrazone of N-(3-formyl-5-methyl-benzoyl)-N-tert-butyl-N′-(2-ethyl-3-methoxy-benzoyl) hydrazide] | 2 percentage of GS ™-E ligand induction | 1 percentage of GS ™-E ligand induction | – | – | – | –
CCc1c(OC)cccc1C(=O)NN(C(=O)c1cc(C)cc(C)c1)C(CC)C(C)(C)C (stereo not drawn) [RG-115832] | 147 percentage of GS ™-E ligand induction | 189 percentage of GS ™-E ligand induction | 4,183 percentage of GS ™-E ligand induction | 2,349 ng/ml mouse sera | 1,807 ng/ml mouse sera | 149
CCC(N(NC(=O)c1cccc(OC)c1C)C(=O)c1cc(C)cc(C)c1)C(C)(C)C (stereo not drawn) [RG-115819, 3,5-dimethyl-benzoic acid N-(1-ethyl-2,2-dimethyl-propyl)-N′-(3-methoxy-2-methyl-benzoyl)-hydrazide] | 172 percentage of GS ™-E ligand induction | 215 percentage of GS ™-E ligand induction | 3,008 percentage of GS ™-E ligand induction | 5,984 ng/ml mouse sera | 4,096 ng/ml mouse sera | 453
CCCC(N(NC(=O)c1cccc(OC)c1CC)C(=O)c1cc(OC)c(C)c(OC)c1)C(C)(C)C (stereo not drawn) [RG-115829, 3,5-Dimethoxy-4-methyl-benzoic acid N-(1-tert-butyl-butyl)-N′-(2-ethyl-3-methoxy-benzoyl)-hydrazide] | 72 percentage of GS ™-E ligand induction | 83 percentage of GS ™-E ligand induction | 687 percentage of GS ™-E ligand induction | – | – | –
CCC(N(NC(=O)c1cccc(OC)c1C)C(=O)c1cc(OC)c(C)c(OC)c1)C(C)(C)C (stereo not drawn) [RG-115820, 3,5-dimethoxy-4-methyl-benzoic acid N-(1-ethyl-2,2-dimethyl-propyl)-N′-(3-methoxy-2-methyl-benzoyl)-hydrazide] | 82 percentage of GS ™-E ligand induction | 63 percentage of GS ™-E ligand induction | 399 percentage of GS ™-E ligand induction | – | – | –
CCc1c(OC)cccc1C(=O)NN(C(=O)c1cc(OC)c(C)c(OC)c1)C(CC)C(C)(C)C (stereo not drawn) [RG-115831] | 118 percentage of GS ™-E ligand induction | 121 percentage of GS ™-E ligand induction | 105 percentage of GS ™-E ligand induction | – | – | –
CCCC(N(NC(=O)c1cccc(OC)c1CC)C(=O)c1cc(C)cc(C)c1)C(C)(C)C (stereo not drawn) [RG-115830] | 120 percentage of GS ™-E ligand induction | 158 percentage of GS ™-E ligand induction | 3,558 percentage of GS ™-E ligand induction | 6,835 ng/ml mouse sera | 5,339 ng/ml mouse sera | 590
COc1cccc(C(=O)NN(C(=O)c2cc(Cl)c(F)c(Cl)c2)C(C)(C)C)c1C [RG-101382, N-(3-methoxy-2-methylbenzoyl)-N′-(3,5-dichloro-4-fluorobenzoyl)-N′-tert-butylhydrazine] | 92 percentage of GS ™-E ligand induction | 81 percentage of GS ™-E ligand induction | 890 percentage of GS ™-E ligand induction | – | – | –

— patent publication US9102648B1, “Bioavailable diacylhydrazine ligands for modulating the expression of exogenous genes via an ecdysone receptor complex” (Intrexon Corporation, priority 2003, dated 2015)
